Series [1] relates to LAD2. As to the kind of experiment: Antiallergic activity in human LAD2 cells assessed as inhibition of C48/80-induced beta-hexosaminidase release. The conditions noted are these: dose 0.1-100 µM. Type of series: functional, cell-based.
The target of series [2] is T1, Mas-related G-protein coupled receptor member X2 (Homo sapiens) (UniProt Q96LB1).
T1 sequence (whole entry): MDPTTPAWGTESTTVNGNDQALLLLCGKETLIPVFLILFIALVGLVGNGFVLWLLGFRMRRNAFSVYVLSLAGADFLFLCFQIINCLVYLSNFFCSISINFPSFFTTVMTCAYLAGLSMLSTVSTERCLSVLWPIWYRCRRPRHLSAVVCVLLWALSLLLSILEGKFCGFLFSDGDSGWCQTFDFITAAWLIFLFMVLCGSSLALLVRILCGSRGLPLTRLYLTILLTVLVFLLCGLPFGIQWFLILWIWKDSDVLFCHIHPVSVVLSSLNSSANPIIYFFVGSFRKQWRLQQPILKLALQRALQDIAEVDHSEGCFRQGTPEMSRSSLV
As to the kind of experiment: Antagonist activity at MRGPRX2 (unknown origin) expressed in HEK293 cells assessed as inhibition of C48/80-induced Ca2+- mobilization. Type of series: functional, cell-based. The conditions noted are these: filed as antagonist, dose 0.1-100 µM, DDE = dose-dependent effect.

Series [3] concerns LAD2. Put plainly: Antiallergic activity in human LAD2 cells assessed as inhibition of C48/80-induced histamine release. It is filed as functional, cell-based. The conditions noted are these: dose 0.1-100 µM, DDE = dose-dependent effect.
For series [4], the system named is LAD2. As to the kind of experiment: Cytotoxicity against human LAD2 cells at 0.1 to 100 uM measured after 24 hrs. Type of series: toxicity, cell-based. The conditions noted are these: lad2, 24 h, dose 0.1-100 µM.

SMILES strings stand for the structures. Calls of active or inactive are those of the source. No cut-off for these calls is given here.

As for `FC(F)(F)c1ccc(/C=C/c2nc(COc3ccc(CCCCn4ccnn4)cc3)co2)cc1`, the inhibition entry in the series on LAD2 [1] is “Active”.

For the molecule `O=C(Nc1ccc(Cl)c(C(F)(F)F)c1)Nc1nc(COc2ccc(CCCCn3ccnn3)cc2)co1`, the inhibition result (in series [2]; in the series on LAD2 [3]; in the series with LAD2 [1] (DDE = dose-dependent effect)) was “Dde” throughout. Also, the Activity result in the series with LAD2 [4] is listed as “Non-Toxic”.

Turning to `O=C(Nc1ccc(Sc2ccc3c(=O)[nH]cnc3c2)cc1)Nc1ccc(Cl)c(C(F)(F)F)c1`, the inhibition result with LAD2 [1] is “Active”.

As for `O=C(Nc1ccc(C(F)(F)F)cc1)Nc1nc(COc2ccc(CCCCn3ccnn3)cc2)co1`, the inhibition entry (in series [2]; in the series on LAD2 [3]; with LAD2 [1] (DDE = dose-dependent effect)) was “Dde” throughout. In the series with LAD2 [4], the Activity entry is “Non-Toxic”.

For the origin of these results see ChEMBL document CHEMBL5143572, “Synthesis and evaluation of new potential anti-pseudo-allergic agents” (Bioorg Med Chem Lett, 2022).
